Like-named read-outs stand apart in the source and are kept apart here.
Columns and labels:
[1] = Plasma free fraction (fu) and unbound Cmax (Cmax,u); assay type: in vitro ADME, human; conditions: unbound plasma Cmax
Experimental: The prediction of DILI severity was evaluated further using the 3D combined HCI assays using plasma-free fraction. The majority of fu values were obtained from literature, when unavailable in-house prediction was utilised. Unbound plasma Cmax concentrations (Cmax,u) were derived by multiplying total plasma Cmax with the corresponding free fraction (fu) for each compound.

HepG2 = test system: HepG2; set-up: method as in Albrecht 2019; conditions: In vitro Assay; ref Albrecht 2019; cited from earlier work
[2] = cited from earlier work
[3] = test system: primary human hepatocytes, NIH3T3 fibroblasts, BSEP, CYP3A4; conditions: cited from earlier work
HepG2 cells [4] = conditions: cited from earlier work
HepG2 cells [5] = conditions: cited from earlier work; remark: listed apart in the source
human hepatocytes = conditions: cited from earlier work
[6] = test system: THLE or HepG2 cells, isolated mitochondria, BSEP; conditions: cited from earlier work
PHH [7] = conditions: cited from earlier work
hLiMTs [8] = conditions: cited from earlier work
PHH spheroids = conditions: In vitro Assay; ref Vorrink 2018; cited from earlier work
[9] = test system: HepG2 C3A spheroid, BSEP, Glu/Gal in HepG2 cells, bioactivation; conditions: cited from earlier work
[10] = read-out: Human plasma Cmax; total plasma Cmax.tot, median of 9 literature references; cited from earlier work
[11] = plasma free fraction; cited from earlier work
[12] = cited from earlier work; remark: listed apart in the source
PHH [13] = conditions: In vitro Assay; ref Albrecht 2019; cited from earlier work
[14] = test system: THLE-Null and THLE-3A4 cells; conditions: In vitro Assay; ref Gustafsson 2014; cited from earlier work
[15] = test system: HepG2 cells, primary human hepatocytes; conditions: In vitro Assay; ref Garside 2014; cited from earlier work
[16] = test system: isolated mouse liver mitochondria; conditions: In vitro Assay; ref Porceddu 2012; cited from earlier work
rBsep = conditions: In vitro Assay; ref Dawson 2012; cited from earlier work
hLiMTs [17] = assay: Combined HCI (HCS) and cellular ATP 3D assay in hLiMTs; conditions: for AC50 / minimal effective concentration: Homo sapiens
HepaRG spheroids = assay: Combined HCI (HCS) and cellular ATP 3D assay in HepaRG spheroids; conditions: for AC50 / minimal effective concentration: Homo sapiens
[18] = In vitro Assay, ref Schadt 2015
[19] = In vitro Assay, ref Persson 2013
[20] = Modeled in vitro assays (cytotoxicity, mitochondrial dysfunction, BSEP), ref Aleo et al. 2019
[21] = In vitro Assay, ref Proctor 2017
[22] = Microtissue model structural based (HCI), combined HCS and ATP, MEC < 25 × Cmax.tot cut-off

Cc1c(C)c2c(c(C)c1O)CCC(C)(COc1ccc(CC3SC(=O)NC3=O)cc1)O2 (stereo not drawn) [troglitazone, reference compound]
Human plasma Cmax,u [1]: 0.064 µM
Cytotoxicity HepG2 48 hrs (HepG2): +VE
DILI severity category (Chen et al. [2016]) ([2]; LTKB DILIrank category, ref Chen et al. 2016): Most
DILI severity category (Chen 2016) ([2]; human DILI classification, LTKB DILIrank, ref Chen et al. 2016): Most
DILI severity category ([2]; human DILI severity, ref Chen et al.): Most
DILI +VE (5-8), DILI -VE (-4) ([2]; ref Chen 2016): +VE
DILI severity category ([2]; ref Chen 2016): vMost-DILI-Concern
DILI in vitro assay prediction, Schadt (2015) ([3]; BSEP & Metabolism based, ref Schadt et al. 2015): +VE
Cellular toxicity (3T3 cells) [3, 18]: +VE
Combined Assay [3, 18]: +VE
GSH adduct HML [3, 18]: +VE
Hepatocyte cellular toxicity [3, 18]: +VE
MitoTox 3T3 [3, 18]: -VE
TDI CYP3A4 [3, 18]: +VE
hBSEP inhibition [3, 18]: +VE
Cluser analysis (HepG2 cells [4]; [19]): +VE
Structural based (HCI) (HepG2 cells [4]; [19]): +VE
DILI in vitro assay prediction, Persson (2013) (HepG2 cells [4]; Structural based (HCI), HepG2, ref Persson et al. 2013): +VE
Structural based (HCI) (HepG2 cells [5]; In vitro Assay, ref Tolosa 2012): +VE
DILI in vitro assay prediction, Tolosa (2012) (HepG2 cells [5]; Structural based (HCI), HepG2, ref Tolosa et al. 2012): +VE
Structural based (HCI) (human hepatocytes; In vitro Assay, ref Xu 2008): +VE
DILI in vitro assay prediction, Xu (2008) (human hepatocytes; Structural based (HCI), human hepatocytes, ref Xu et al. 2008): +VE
Partition Hybrid HRM Score ([6]; In vitro Assay, ref Aleo 2019): +VE
Ro2 Hybrid HRM Score ([6]; In vitro Assay, ref Aleo 2019): +VE
Partition Hybrid HRM Score ≥4, Aleo (2019) [6, 20]: +VE (Partition Hybrid HRM Score ≥4)
Partition Hybrid HRM Score ≥8, Aleo (2019) [6, 20]: +VE (Partition Hybrid HRM Score ≥8)
Rule of Two hybrid HRM Score ≥3, Aleo (2019) [6, 20]: +VE (Rule of Two hybrid HRM Score ≥3)
Rule of Two hybrid HRM Score ≥8, Aleo (2019) [6, 20]: +VE (Rule of Two hybrid HRM Score ≥8)
PHH/100xCmax, Proctor (2017) (PHH [7]; 2D PHH, ATP, IC50 < 100 × Cmax.tot, ref Proctor et al. 2017): -VE
PHH/100uM, Proctor (2017) (PHH [7]; 2D PHH, ATP, IC50 threshold 100 µM, ref Proctor et al. 2017): -VE
PHH ATP <100uM (PHH [7]; [21]): -VE
hLiMTs ATP <100uM (hLiMTs [8]; [21]): +VE (IC50 threshold of 100 µM)
hLiMTs/100xCmax, Proctor (2017) (hLiMTs [8]; hLiMTs, ATP, IC50 < 100 × Cmax.tot, ref Proctor et al. 2017): +VE (IC50 < 100 × Cmax.tot)
hLiMTs/100uM, Proctor (2017) (hLiMTs [8]; hLiMTs, ATP, IC50 threshold 100 µM, ref Proctor et al. 2017): +VE (IC50 threshold of 100 µM)
hLiMTs ATP <20 x Cmax (PHH spheroids): +VE (IC20 < 20 × Cmax.tot cut-off)
Bayesian Machine Learning DILI prediction, Williams (2019) ([9]; Bayesian modeling, ref Williams et al. 2019): +VE
Bayesian Machine Learning ([9]; In vitro Assay, ref Williams 2019): +VE
Cmax [10]: 6.39 µM
fu [11]: 0.010
Assigned DILI category ([12]; Chen et al. 2016 or literature alignment, ref Chen et al. 2016): 3
In vivo DILI ([12]; […]): +VE
In vivo DILI ([12]; ref Albrecht 2019): +VE
In vivo DILI ([12]; ref Aleo 2019): +VE
In vivo DILI ([12]; ref Dawson 2012): +VE
In vivo DILI ([12]; ref Garside 2014): +VE
In vivo DILI ([12]; ref Gustafsson 2014): +VE
In vivo DILI ([12]; ref Persson 2013): +VE
In vivo DILI ([12]; ref Porceddu 2012): +VE
In vivo DILI ([12]; ref Proctor 2017): +VE
In vivo DILI ([12]; ref Schadt 2015): +VE
In vivo DILI ([12]; ref Tolosa 2012): +VE
In vivo DILI ([12]; ref Vorrink 2018): +VE
In vivo DILI ([12]; ref Williams 2019): +VE
In vivo DILI ([12]; ref Xu 2008): +VE
Cytotoxicity PHH 48 hrs (PHH [13]): +VE
THLE-Null [14]: +VE
THLE-Null/3A4 [14]: -VE
Cluster 1-6 +VE Assay [15]: +VE
in vitro data EC2<=1x Cmax [16]: +VE
in vitro data EC20<=2uM [16]: +VE
Inhibition of rBsep cutoff<1& cmax u>.2 (rBsep): +VE
Inhibition of rBsep cutoff<3 (rBsep): +VE
AC50 (hLiMTs [17]; read-out: ATP endpoint AC50): 89.5 µM
minimal effective concentration (hLiMTs [17]; read-out: ATP endpoint MEC): 74 µM
AC50 (hLiMTs [17]; read-out: HCS endpoint AC50): 73.6 µM
minimal effective concentration (hLiMTs [17]; read-out: HCS endpoint MEC): 67.6 µM
DILI prediction hLiMTs (HCS-MEC) (hLiMTs [17]; [22]): +VE (MEC < 25 × Cmax.tot cut-off)
hLiMTs <25x Avg Cmax ATP (hLiMTs [17]; hLiMTs, ATP endpoint, cut-off <25x Avg Cmax): +ve
hLiMTs <100x Avg Cmaxu ATP (hLiMTs [17]; hLiMTs, ATP endpoint, cut-off <100x Avg Cmaxu): -ve
hLiMTs <25x Avg Cmax HCS (hLiMTs [17]; hLiMTs, HCS endpoints, cut-off <25x Avg Cmax): +ve
hLiMTs <100x Avg Cmaxu HCS (hLiMTs [17]; hLiMTs, HCS endpoints, cut-off <100x Avg Cmaxu): -ve
hLiMTs <25x Avg Cmax All (hLiMTs [17]; hLiMTs, all endpoints (ATP and HCS), cut-off <25x Avg Cmax): +ve
hLiMTs Cmax max All (hLiMTs [17]; hLiMTs, all endpoints, Cmax max used): +ve
hLiMTs Cmax min All (hLiMTs [17]; hLiMTs, all endpoints, Cmax min used): +ve
hLiMTs <10 uM All (hLiMTs [17]; hLiMTs, all endpoints, cut-off <10 uM): -ve
hLiMTs <100x Avg Cmaxu All (hLiMTs [17]; hLiMTs, all endpoints, cut-off <100x Avg Cmaxu): -ve
HepaRG <25x Avg Cmax ATP (HepaRG spheroids; HepaRG, ATP endpoint, cut-off <25x Avg Cmax): +ve
HepaRG <100x Avg Cmaxu ATP (HepaRG spheroids; HepaRG, ATP endpoint, cut-off <100x Avg Cmaxu): -ve
HepaRG <25x Avg Cmax HCS (HepaRG spheroids; HepaRG, HCS endpoints, cut-off <25x Avg Cmax): +ve
HepaRG <100x Avg Cmaxu HCS (HepaRG spheroids; HepaRG, HCS endpoints, cut-off <100x Avg Cmaxu): -ve
HepaRG <25x Avg Cmax All (HepaRG spheroids; HepaRG, all endpoints (ATP and HCS), cut-off <25x Avg Cmax): +ve
HepaRG Cmax max All (HepaRG spheroids; HepaRG, all endpoints, Cmax max used): +ve
HepaRG Cmax min All (HepaRG spheroids; HepaRG, all endpoints, Cmax min used): +ve
HepaRG <10 uM All (HepaRG spheroids; HepaRG, all endpoints, cut-off <10 uM): -ve
HepaRG <100x Avg Cmaxu All (HepaRG spheroids; HepaRG, all endpoints, cut-off <100x Avg Cmaxu): -ve
AC50 (HepaRG spheroids; HepaRG, read-out: ATP endpoint AC50): 28.8 µM
minimal effective concentration (HepaRG spheroids; HepaRG, read-out: ATP endpoint MEC): 25 µM
AC50 (HepaRG spheroids; HepaRG, read-out: HCS endpoint AC50): 33 µM
minimal effective concentration (HepaRG spheroids; HepaRG, read-out: HCS endpoint MEC): 22 µM
DILI prediction HepaRG spheroids (HCS-MEC) (HepaRG spheroids; [22]): +VE (MEC < 25 × Cmax.tot cut-off)

Reference: PMC7395068, “The evolution of strategies to minimise the risk of human drug-induced liver injury (DILI) in drug discovery and development” (Archives of Toxicology, 2020)
